In US12377066B2, “Treatment of diseases associated with biliary system destruction” (Assistance Publique-Hopitaux de Paris, priority 2018, dated 2025):
“Also recorded” adds a separate entry of the source.

What was measured:
PPARα = format: in vivo; conditions: Vps15 LKO mice, two weeks
Method: All animals used in the study were fed ad libitum standard chow diet (Teklad global protein diet; 20% protein, 75% carbohydrate, 5% fat) and kept under 12 h/12 h (8 am/8 pm) light on/off cycle. Animals were sacrificed between 2-4 pm unless indicated. […] Plasmatic TG, Billirubin, Hydroxybutyrate, AST and ALAT activities were measured enzymatically using Olympus AU 400 apparatus.
Total RNA was isolated from liver tissue using RNAeasy Lipid Tissue Mini Kit (Qiagen). Single-strand complementary DNA was synthesized from 1 μg of total RNA using 125 ng of random hexamer primers and SuperScript II (Life Technologies). RT-qPCR was performed on MX3005P instrument (Agilent) using a Brilliant III Ultra-Fast QPCR Master Mix (Agilent). The relative amounts of the mRNAs studied were determined by means of the 2^−ΔΔCT method, with pinin, S18, cyclophilin, eIF2α, HUS, Ubiquitin as reference genes for studies in mice and pinin for studies in human patient samples.

Vps15 LKO mice [1] = assay: Histological analyses of liver tissue (hematoxylin/eosin, Sirius Red) in treated control and Vps15 LKO mice; format: in vivo; conditions: two weeks
Excerpt: (§1) The Vsp15 conditional mutant mouse line was established at the MCI/ICS (Mouse Clinical Institute—Institute Clinique de la Souris, Illkirch, France) as described (Nemazanyy, I. et al. Defects of Vps15 in skeletal muscles lead to autophagic vacuolar myopathy and lysosomal disease. EMBO Mol. Med. (2013). Liver specific Vps15 knockout mouse line was generated as described (Nemazanyy I et al., Class III PI3K regulates organismal glucose homeostasis by providing negative feedback on hepatic insulin signalling. Nat Commun. 2015 Sep. 21; 6:8283.). Mice were housed in specific pathogen-free conditions. Male mice (5-8-week-old) were used for the experimentation. Mice were randomly allocated to experimental groups and at least three animals were used for each condition (as indicated in figure legends) to ensure statistics analyses. Animal numbers were chosen to reflect the expected magnitude of response that takes into account the variability observed in previous experiments. All animal studies were approved by the Direction Départementale des Services Vétérinaires, Prefecture de Police, Paris, France (authorization number 75-1313) and the ethical committee of Paris Descartes University (17-052).
(§2) All animals used in the study were fed ad libitum standard chow diet (Teklad global protein diet; 20% protein, 75% carbohydrate, 5% fat) and kept under 12 h/12 h (8 am/8 pm) light on/off cycle. Animals were sacrificed between 2-4 pm unless indicated. […] For 5-bromo-2′deoxyuridine (BrdU) incorporation, mice were treated with BrdU (3 mg/ml, Sigma-Aldrich) dissolved in drinking water for 3 days before sacrifice. […]. For immunohistochemical analysis liver tissue was fixed overnight in phosphate-buffered 10% formalin and embedded in paraffin. […] sections were cut and processed either for staining with eosin/hematoxylin, Sirius Red or for immunohistochemical analyses. Plasmatic TG, Billirubin, Hydroxybutyrate, AST and ALAT activities were measured enzymatically using Olympus AU 400 apparatus.
For immunohistochemical analysis, liver tissue was fixed overnight in phosphate-buffered 10% formalin and embedded in paraffin. 4 μm sections were cut and processed either for staining with eosin/hematoxylin or for immunohistochemical analyses. Post-staining analyses were performed on digitalized with the NanoZoomer S210 (Hamamatsu) liver tissue slices. Immunohistochemistry of liver tissue sections was performed using anti-p62 (Abnova), anti-TROMA-III-s (DSHB), anti-cytokeratin (AbCyst) or with anti-Lamp1 (Abcam) antibodies.

Vps15 LKO mice [2] = assay: Immunoblot analyses of total protein liver extracts (Lamp1, Lamp2, p62, LC3, FABP1) of treated mice; format: in vivo; conditions: two weeks
Excerpt: as §1, §2
To prepare protein extract for immunoblot analysis, liver tissue was homogenized in lysis buffer containing 20 mM Tris-HCl (pH 8.0), 5% glycerol, 138 mM NaCl, 2.7 mM KCl, 1% NP-40, 20 mM NaF, 5 mM EDTA, 1× protease inhibitors (Roche), 1× PhosphoStop Inhibitors (Roche). Homogenates were spun at 12000×g for 10 min at 4° C. Protein extracts were resolved by SDS-PAGE before transfer onto PVDF membrane followed by incubation with the primary antibodies and HRP-linked secondary antibodies. Immobilon Western Chemiluminescent HRP Substrate (Millipore) was used for the detection. The images were acquired using ChemiDocTouch Imaging System (BioRad) and the quantification performed using ImageJ software.

Vps15 LKO mice [3] = assay: Plasma biochemical analyses (TG, ALAT, AST) and spleen weight to body weight ratio in treated mice; format: in vivo; conditions: two weeks
Excerpt: as §1, §2

Vps15 LKO mice [4] = assay: Targeted metabolomics of acyl-carnitine fatty acid species in liver tissue of treated mice; format: in vivo; conditions: two weeks
Excerpt: as §1, §2
Targeted metabolomics analyses were performed on liver tissue extracts obtained with solution of 50% methanol, 30% ACN, and 20% water. The volume of extraction solution added was calculated from weight of powdered tissue (60 mg/ml). After addition of extraction solution, samples were vortexed for 5 min at 4° C., and then centrifuged at 16,000×g for 15 min at 4° C. The supernatants were collected and analysed by liquid chromatography-mass spectrometry using SeQuant ZIC-pHilic column (Merck) for the liquid chromatography separation. Mobile phase A consisted of 20 mM ammonium carbonate plus 0.1% ammonia hydroxide in water. Mobile phase B consisted of ACN. The flow rate was kept at […], and the gradient was 0 min, 80% of B; 30 min, 20% of B; 31 min, 80% of B; and 45 min, 80% of B. The mass spectrometer (QExactive Orbitrap, Thermo Fisher Scientific) was operated in a polarity switching mode and metabolites were identified using TraceFinder Software (Thermo Fisher Scientific). For analyses, metabolomics data were normalized using the median normalization method. MetaboAnalyst 4.0 software was used for heatmaps generation. The algorithm for heatmap clustering was based on the Pearson distance measure for similarity and the Ward linkage method for biotype clustering.

BA patients = conditions: large clinical use during many years, no controlled studies; cited from earlier work
[5] = Vps15 LKO mice, drug incorporated in food
[6] = Vps15 LKO mice, drug incorporated in food, listed as BEZA
[7] = Vps15 LKO mice, once per day by oral gavage
[8] = Vps15 LKO mice, once per day by oral gavage, listed as FENO
[9] = control mice, fenofibrate incorporated in food

In the case of `CC(C)(Oc1ccc(CCNC(=O)c2ccc(Cl)cc2)cc1)C(=O)O` [bezafibrate, 2-(4-(2-((4-chlorobenzoyl)amino)ethyl)phenoxy)-2-methylpropanoic acid], the “PPARα transcriptional activity in liver (transcript levels of PPARα target genes)” value (PPARα; drug incorporated in food (fenofibrate 200 mg/kg or bezafibrate 0.5%)) is reported as “equally efficient in restoring PPARα transcriptional activity; also recorded: restoration of PPARα function”, the “liver inflammation (transcript levels of TNF1α, IL1β, F4/80)” value (PPARα; drug incorporated in food) is reported as “effective in reducing the inflammation” and the “hepatocyte volume (histology)” value (Vps15 LKO mice [1]; [5]) is reported as “reduce hepatocyte volume”. The “hepatocyte vacuolation (hematoxylin/eosin)” value (Vps15 LKO mice [1]; [6]) was “sufficient to decrease hepatocyte vacuolation; also recorded: rescues hepatocyte vacuolation”, the “portal area organization / architecture of intrahepatic biliary system (histology)” value (Vps15 LKO mice [1]; [6]) was “improve the portal area organization; also recorded: ameliorates architecture of intrahepatic biliary system” and the “LC3 lipidation (LC3-II form) in liver (immunoblot)” value (shortened to “LC3 lipidation (LC3-II form)”) (Vps15 LKO mice [2]; [5]) was “promoted LC3-lipidation”. The “accumulation of Lamp proteins (Lamp1, Lamp2) in liver (immunoblot)” value (“accumulation of Lamp proteins” for short) (Vps15 LKO mice [2]; [5]) was “reduced”, the “autophagic clearance in liver” value (Vps15 LKO mice [2]; [5]) was “promoted autophagic clearance” and the “p62 protein levels in liver (immunoblot)” value (Vps15 LKO mice [2]; [5]) was “reduction of p62 accumulation”. For the same compound, the “protein expression of PPARα target Fabp1 in liver (immunoblot)” value (Vps15 LKO mice [2]; [5]) was “equally effective in restoring”, the “LC3 lipidation (LC3-II form)” value (Vps15 LKO mice [2]; [6]) was “increased lipidation of LC3” and the “accumulation of Lamp proteins” value (Vps15 LKO mice [2]; [6]) was “decreased Lamp1 and p62 protein levels”. The “p62 protein levels in liver (immunoblot)” value (Vps15 LKO mice [2]; [6]) was “decreased Lamp1 and p62 protein levels”, the “liver damage: activity of transaminases (ALAT, AST) in plasma” value (Vps15 LKO mice [3]; [5]) was “fenofibrate, independently of mode of administration, was more effective in lowering liver damage compared to bezafibrate treatment” and the “spleen hypertrophy (ratio of spleen weight to body weight)” value (Vps15 LKO mice [3]; [5]) was “decreasing spleen hypertrophy”. For the same compound, the “triglyceride (TG) levels in plasma” value (Vps15 LKO mice [3]; [5]) was “effective in lowering TG levels”, the “fatty acid oxidation in liver (metabolomics)” value (“fatty acid oxidation in liver” below) (Vps15 LKO mice [4]; drug incorporated in food) was “marked restoration of fatty acid oxidation” and the “levels of long-chain fatty acid carnitines in liver” value (Vps15 LKO mice [4]; drug incorporated in food) was “decreased levels of long-chain fatty acid carnitines”. For the same compound, the “levels of short-chain fatty acid carnitines in liver” value (Vps15 LKO mice [4]; drug incorporated in food) was “increased levels of short-chain fatty acid carnitines” and the “fatty acid oxidation in liver” value (Vps15 LKO mice [4]; drug incorporated in food, listed as BEZA) was “sufficient to restore the metabolic activity such as fatty-acid oxidation”.

In the case of `CC(C)OC(=O)C(C)(C)Oc1ccc(C(=O)c2ccc(Cl)cc2)cc1` [fenofibrate, 2-{4-[(4-chlorophenyl)carbonyl]phenoxy}-2-méthylpropanoatede propan-2-yle], the “hepatocyte vacuolation (hematoxylin/eosin)” value (Vps15 LKO mice [1]; [5]) is reported as “significantly decrease hepatocyte vacuolation; also recorded: rescues hepatocyte vacuolation”, the “hepatocyte volume (histology)” value (Vps15 LKO mice [1]; [5]) is reported as “reduce hepatocyte volume” and the “inflammatory cell infiltration in liver (histology)” value (Vps15 LKO mice [1]; [5]) is reported as “reduce hepatocyte volume and inflammatory cell infiltration”. For the same compound, the “liver fibrosis / collagen deposition (quantification of Sirius Red staining)” value (Vps15 LKO mice [1]; [5]) was “lower; also recorded: decreased”, the “portal area organization / architecture of intrahepatic biliary system (histology)” value (Vps15 LKO mice [1]; [5]) was “effective in improving the portal area organization; also recorded: ameliorates architecture of biliary system” and the “hepatocyte volume (histology)” value (Vps15 LKO mice [1]; [7]) was “reduce hepatocyte volume”. For the same compound, the “hepatocyte vacuolation (hematoxylin/eosin)” value (Vps15 LKO mice [1]; [8]) was “sufficient to decrease hepatocyte vacuolation; also recorded: rescues hepatocyte vacuolation”, the “portal area organization / architecture of intrahepatic biliary system (histology)” value (Vps15 LKO mice [1]; [8]) was “improve the portal area organization; also recorded: ameliorates architecture of intrahepatic biliary system” and the “hepatocyte hypertrophy (histology)” value (Vps15 LKO mice [1]; [9]) was “resulted in hepatocyte hypertrophy”. For the same compound, the “LC3 lipidation (LC3-II form)” value (Vps15 LKO mice [2]; [5]) was “induced an important lipidation of LC3 protein; also recorded: promoted LC3-lipidation”, the “accumulation of Lamp proteins” value (Vps15 LKO mice [2]; [5]) was “significantly ameliorated; also recorded: significantly reverted” and the “autophagic clearance in liver” value (Vps15 LKO mice [2]; [5]) was “promotes autophagic clearance”. For the same compound, the “p62 protein levels in liver (immunoblot)” value (Vps15 LKO mice [2]; [5]) was “significantly ameliorated; also recorded: decreased levels of p62 protein”, the “LC3 lipidation (LC3-II form)” value (Vps15 LKO mice [2]; [7]) was “promoted LC3-lipidation” and the “accumulation of Lamp1 protein in liver (immunoblot)” value (Vps15 LKO mice [2]; [7]) was “reduced”. For the same compound, the “autophagic clearance in liver” value (Vps15 LKO mice [2]; [7]) was “promoted autophagic clearance”, the “p62 protein levels in liver (immunoblot)” value (Vps15 LKO mice [2]; [7]) was “reduction of p62 accumulation” and the “protein expression of PPARα target Fabp1 in liver (immunoblot)” value (Vps15 LKO mice [2]; [7]) was “equally effective in restoring”. The “LC3 lipidation (LC3-II form)” value (Vps15 LKO mice [2]; [8]) was “increased lipidation of LC3”, the “accumulation of Lamp1 protein in liver (immunoblot)” value (Vps15 LKO mice [2]; [8]) was “decreased Lamp1 and p62 protein levels” and the “p62 protein levels in liver (immunoblot)” value (Vps15 LKO mice [2]; [8]) was “decreased Lamp1 and p62 protein levels”. The “LC3 lipidation (LC3-II form)” value (Vps15 LKO mice [2]; [9]) was “induced an important lipidation of LC3 protein; also recorded: promoted LC3-lipidation”, the “liver damage: activity of transaminases (ALAT, AST) in plasma” value (Vps15 LKO mice [3]; [5]) was “significantly decreased activity of transaminases; also recorded: more effective in lowering liver damage compared to bezafibrate; also recorded: significantly ameliorates liver damage” and the “triglyceride (TG) levels in plasma” value (Vps15 LKO mice [3]; [5]) was “resulted in their normalization; also recorded: effective in lowering TG levels; also recorded: beneficial effect in lowering plasmatic triglycerides”. The “triglyceride (TG) levels in plasma” value (Vps15 LKO mice [3]; [7]) was “effective in lowering TG levels”, the “triglyceride levels in plasma” value (Vps15 LKO mice [3]; [9]) was “effective in lowering triglyceride levels” and the “fatty acid oxidation in liver” value (Vps15 LKO mice [4]; once per day by oral gavage) was “marked restoration of fatty acid oxidation”. For the same compound, the “levels of long-chain fatty acid carnitines in liver” value (Vps15 LKO mice [4]; once per day by oral gavage) was “decreased levels of long-chain fatty acid carnitines”, the “levels of short-chain fatty acid carnitines in liver” value (Vps15 LKO mice [4]; once per day by oral gavage) was “increased levels of short-chain fatty acid carnitines” and the “fatty acid oxidation in liver” value (Vps15 LKO mice [4]; once per day by oral gavage, listed as FENO) was “sufficient to restore the metabolic activity such as fatty-acid oxidation”.

For desoxycholic acid [UDCA], the “prognosis of patients (% of liver transplantation or survival)” value (BA patients) is listed as “provided no evidence that it might positively affect prognosis of the patients”.
